Laboratory results from patent publication US20210138025A1, “CATIONIC PEPTIDES WITH IMMUNOMODULATORY AND/OR ANTI-BIOFILM ACTIVITIES” (priority 2018, published 2021).
≈ marks a conversion by molar mass, not a printed value. Non-standard residues stand in square brackets, D forms with d. Residues, ends and D or L forms follow the SMILES beside them.

Experiments:
Type in all cases: cell-based
CCL5 [1] = assay: CCL5 production by peptide alone and in presence of Con A, canine cells (Table 21); conditions: peptide 32 μg/ml
Protocol: (§1) A subset of peptides was tested for stimulation of the chemokine CCL5 (Table 21).

Histophilus somnus (Hs) [2] = system: Histophilus somnus (Hs)
Protocol: (§2) The following strains were assessed vs. Staphylococcus epidermidis (Se), Pseudomonas aeruginosa (Pa), Streptococcus dysgalactiae (Sd), Pasteurella multocida (Pm), Streptococcus agalactiae (Sa), Streptococcus uberis (Su), Streptococcus suis (Ss), Mannheimia haemolytica (Mh), Bordatella bronchiseptica (Bb), Histophilus somnus (Hs), and Staphylococcus pseudintermedius (Sp) (Table 18) for Minimal Inhibitory Concentrations (MIC). Italics=excellent activity (less than or equal to 4 μg/ml).

Streptococcus suis (Ss) [3] = system: Streptococcus suis (Ss)
Protocol: as §2

[4] = system: Streptococcus agalactiae (Sa)
Protocol: as §2

[5] = system: Pasteurella multocida (Pm)
Protocol: as §2

[6] = system: Staphylococcus epidermidis (Se)
Protocol: as §2

[7] = system: Streptococcus dysgalactiae (Sd)
Protocol: as §2

[8] = system: Mannheimia haemolytica (Mh)
Protocol: as §2

[9] = system: Streptococcus uberis (Su)
Protocol: as §2

[10] = system: Bordatella bronchiseptica (Bb)
Protocol: as §2

[11] = system: Staphylococcus pseudintermedius (Sp)
Protocol: as §2

[12] = system: Pseudomonas aeruginosa (Pa)
Protocol: as §2

T-lymphocytes [13] = assay: Cytokine production in T-lymphocytes, bovine (Table 24); conditions: no additional stimulant, background (NONE) subtracted
T-lymphocytes [14] = assay: Anti-inflammatory activity towards stimulated T-lymphocytes, bovine (Table 25); conditions: Bovine T-cells, 32 μg/ml of peptide
[15] = system: ConA stimulated monocytes; assay: Anti-inflammatory activity in ConA stimulated monocytes, canine (Table 23); conditions: 32 μg/ml peptide, negative = increase
T-lymphocytes [16] = assay: Cytokine production in T-lymphocytes, canine (Table 24); conditions: no additional stimulant, background (NONE) subtracted
E. coli (Ec) [17] = conditions: Ec
S. aureus (Sau) [18] = conditions: Sau
monocytes [19] = assay: Cytokine production in unstimulated monocytes, bovine (Table 22); conditions: background subtracted
Protocol: (§3) A subset of peptides was tested for stimulation of cytokine production in monocytes (Table 22). For the tested cytokines, the peptides tended to show anti-inflammatory activity rather than […] activity.

T-lymphocytes [20] = assay: Anti-inflammatory activity towards stimulated T-lymphocytes, canine (Table 25); conditions: Canine T-cells, 32 μg/ml of peptide
CCL5 [21] = assay: CCL5 production by peptide alone and in presence of LPS, bovine cells (Table 21); conditions: peptide 32 μg/ml
Protocol: as §1

monocytes [22] = assay: Cytokine production in unstimulated monocytes, canine (Table 22); conditions: background subtracted
Protocol: as §3

E. coli (Ec) [23] = conditions: Ec; remark: listed apart in the source
S. aureus (Sau) [24] = conditions: Sau; remark: listed apart in the source
Histophilus somnus (Hs) [25] = system: Histophilus somnus (Hs); remark: listed apart in the source
Protocol: (§4) The same strains as in Table 18 were assessed for Minimal Biofilm Inhibitory Concentrations (MBIC) (Table 19). Italics=excellent activity (less than or equal to 4 μg/ml). ND=Not determined. Peptides 3013, 3015 and 3016 inhibited biofilm growth in the largest number of bacterial strains (5, 5 and 6 out of 13 strains, respectively).

Streptococcus suis (Ss) [26] = system: Streptococcus suis (Ss); remark: listed apart in the source
Protocol: as §4

[27] = system: Streptococcus agalactiae (Sa); remark: listed apart in the source
Protocol: as §4

[28] = system: Pasteurella multocida (Pm); remark: listed apart in the source
Protocol: as §4

[29] = system: Staphylococcus epidermidis (Se); remark: listed apart in the source
Protocol: as §4

[30] = system: Streptococcus dysgalactiae (Sd); remark: listed apart in the source
Protocol: as §4

[31] = system: Mannheimia haemolytica (Mh); remark: listed apart in the source
Protocol: as §4

[32] = system: Streptococcus uberis (Su); remark: listed apart in the source
Protocol: as §4

[33] = system: Bordatella bronchiseptica (Bb); remark: listed apart in the source
Protocol: as §4

[34] = system: Staphylococcus pseudintermedius (Sp); remark: listed apart in the source
Protocol: as §4

[35] = system: Pseudomonas aeruginosa (Pa); remark: listed apart in the source
Protocol: as §4

LPS stimulated monocytes = assay: Anti-inflammatory activity in LPS stimulated monocytes, bovine (Table 23); conditions: 32 μg/ml peptide, negative = increase

CC[C@@H](C)[C@@H](NC(=O)[C@@H](C)NC(=O)[C@@H](CCCNC(=N)N)NC(=O)[C@@H](Cc1c[nH]c2ccccc12)NC(=O)[C@@H](CCC(N)=O)NC(=O)[C@H](N)C(C)C)C(=O)N[C@H](CCCNC(=N)N)C(=O)N[C@@H](C(=O)N[C@H](CCCNC(=N)N)C(=O)N[C@@H](C(=O)N[C@@H](C(=O)N[C@H](CCCNC(=N)N)C(N)=O)[C@H](C)CC)C(C)C)C(C)C [DJK5, VQWRAIRVRVIR] (H-[dV][dQ][dW][dR][dA][dI][dR][dV][dR][dV][dI][dR]-NH2; N-terminus and C-terminus assumed) was tested, and the “Concentration of CCL5 in the absence of stimulation by LPS or ConA” value (shortened to “Concentration of CCL5”) (CCL5 [1]; Canine Monocyte) was 442, the “Concentration of CCL5” value (CCL5 [1]; Canine T-cells) was 290 and the “% CCL5 production relative to that of LPS/ConA” value (CCL5 [1]; Canine/ConA Monocyte) was 81%. The “% CCL5 production relative to that of LPS/ConA” value (CCL5 [1]; Canine/ConA T-cells) was 26%, the “MIC Hs” value (Histophilus somnus (Hs) [2]) was 32 µg/mL (≈ 20.6 µM) and the “MIC Ss” value (Streptococcus suis (Ss) [3]) was <1 µg/mL. The “MIC Sa” value [4] was 2 µg/mL (≈ 1.29 µM), the “MIC Pm” value [5] was 8 µg/mL (≈ 5.16 µM) and the “MIC Se” value [6] was 2 µg/mL (≈ 1.29 µM). The “MIC Sd” value [7] was <1 µg/mL, the “MIC Mh” value [8] was 8 µg/mL (≈ 5.16 µM) and the “MIC Su” value [9] was <1 µg/mL. The “MIC Bb” value [10] was 4 µg/mL (≈ 2.58 µM), the “MIC Sp” value [11] was <1 µg/mL and the “MIC Pa” value [12] was 4 µg/mL (≈ 2.58 µM). The “Concentration of T-cell cytokines in the absence of additional stimulant: IFNγ” value (T-lymphocytes [13]) was -12 pg/mL, the “Concentration of T-cell cytokines in the absence of additional stimulant: IL-2” value (T-lymphocytes [13]) was -66 pg/mL and the “Concentration of T-cell cytokines in the absence of additional stimulant: IL-4” value (T-lymphocytes [13]) was -73 pg/mL. The “Concentration of T-cell cytokines in the absence of additional stimulant: IL-6” value (T-lymphocytes [13]) was -92 pg/mL, the “Concentration of T-cell cytokines in the absence of additional stimulant: IL-13” value (T-lymphocytes [13]) was 178 pg/mL and the “Concentration of T-cell cytokines in the absence of additional stimulant: TNFα” value (T-lymphocytes [13]) was 113 pg/mL. The “% Cytokine decrease in the presence of LPS/ConA: IFNγ” value (T-lymphocytes [14]) was 34.9%, the “% Cytokine decrease in the presence of LPS/ConA: IL-2” value (T-lymphocytes [14]) was 80.7% and the “% Cytokine decrease in the presence of LPS/ConA: IL-4” value (T-lymphocytes [14]) was 37.7%. For the same molecule, the “% Cytokine decrease in the presence of LPS/ConA: IL-6” value (T-lymphocytes [14]) was −16.4%, the “% Cytokine decrease in the presence of LPS/ConA: IL-13” value (T-lymphocytes [14]) was 85.3% and the “% Cytokine decrease in the presence of LPS/ConA: TNFα” value (T-lymphocytes [14]) was 38.2%. The “% Monocyte cytokine decrease in presence of LPS/ConA, IFNγ” value [15] was 13.7%, the “% Monocyte cytokine decrease in presence of LPS/ConA, IL-2” value [15] was 38.9% and the “% Monocyte cytokine decrease in presence of LPS/ConA, IL-4” value [15] was 32.6%. The “% Monocyte cytokine decrease in presence of LPS/ConA, IL-6” value [15] was 39.9%, the “% Monocyte cytokine decrease in presence of LPS/ConA, IL-13” value [15] was 36.5% and the “% Monocyte cytokine decrease in presence of LPS/ConA, TNFα” value [15] was 44.3%. For the same molecule, the “Concentration of T-cell cytokines in the absence of additional stimulant: IFNγ” value (T-lymphocytes [16]) was 11 pg/mL, the “Concentration of T-cell cytokines in the absence of additional stimulant: IL-2” value (T-lymphocytes [16]) was 13 pg/mL and the “Concentration of T-cell cytokines in the absence of additional stimulant: IL-4” value (T-lymphocytes [16]) was 71 pg/mL. The “Concentration of T-cell cytokines in the absence of additional stimulant: IL-6” value (T-lymphocytes [16]) was 149 pg/mL, the “Concentration of T-cell cytokines in the absence of additional stimulant: IL-13” value (T-lymphocytes [16]) was -100 pg/mL and the “Concentration of T-cell cytokines in the absence of additional stimulant: TNFα” value (T-lymphocytes [16]) was -46 pg/mL. The MBIC (E. coli (Ec) [17]) was <1 µg/mL, the “MBIC E. coli” value (E. coli (Ec) [17]) was <1 µg/mL and the MBIC (S. aureus (Sau) [18]) was <1 µg/mL. For the same molecule, the “MBIC S. aureus” value (S. aureus (Sau) [18]) was <1 µg/mL, the “Concentration of Monocyte cytokine IFNγ in absence of additional stimulant” value (monocytes [19]) was -3 pg/mL and the “Concentration of Monocyte cytokine IL-2 in absence of additional stimulant” value (monocytes [19]) was -103 pg/mL. The “Concentration of Monocyte cytokine IL-4 in absence of additional stimulant” value (monocytes [19]) was -196 pg/mL, the “Concentration of Monocyte cytokine IL-6 in absence of additional stimulant” value (monocytes [19]) was 75 pg/mL and the “Concentration of Monocyte cytokine IL-13 in absence of additional stimulant” value (monocytes [19]) was 294 pg/mL. The “Concentration of Monocyte cytokine TNFα in absence of additional stimulant” value (monocytes [19]) was -218 pg/mL, the “% Cytokine decrease in the presence of LPS/ConA: IFNγ” value (T-lymphocytes [20]) was 60.2% and the “% Cytokine decrease in the presence of LPS/ConA: IL-2” value (T-lymphocytes [20]) was 62.3%. The “% Cytokine decrease in the presence of LPS/ConA: IL-4” value (T-lymphocytes [20]) was 65.5%, the “% Cytokine decrease in the presence of LPS/ConA: IL-6” value (T-lymphocytes [20]) was 24.8% and the “% Cytokine decrease in the presence of LPS/ConA: IL-13” value (T-lymphocytes [20]) was 48.2%. The “% Cytokine decrease in the presence of LPS/ConA: TNFα” value (T-lymphocytes [20]) was 7.1%, the “Concentration of CCL5” value (CCL5 [21]; Bovine Monocyte) was 825 and the “Concentration of CCL5” value (CCL5 [21]; Bovine T-cells) was 195. For the same molecule, the “% CCL5 production relative to that of LPS/ConA” value (CCL5 [21]; Bovine/LPS Monocyte) was 105%, the “% CCL5 production relative to that of LPS/ConA” value (CCL5 [21]; Bovine/LPS T-cells) was 79% and the “Concentration of Monocyte cytokine IFNγ in absence of additional stimulant” value (monocytes [22]) was -310 pg/mL. For the same molecule, the “Concentration of Monocyte cytokine IL-2 in absence of additional stimulant” value (monocytes [22]) was 86 pg/mL, the “Concentration of Monocyte cytokine IL-4 in absence of additional stimulant” value (monocytes [22]) was -241 pg/mL and the “Concentration of Monocyte cytokine IL-6 in absence of additional stimulant” value (monocytes [22]) was -113 pg/mL. The “Concentration of Monocyte cytokine IL-13 in absence of additional stimulant” value (monocytes [22]) was -25 pg/mL, the “Concentration of Monocyte cytokine TNFα in absence of additional stimulant” value (monocytes [22]) was -73 pg/mL and the “MIC E. coli” value (E. coli (Ec) [23]) was <1 µg/mL. For the same molecule, the “MIC Ec” value (E. coli (Ec) [23]) was <1 µg/mL, the “MIC S. aureus” value (S. aureus (Sau) [24]) was 2 µg/mL (≈ 1.29 µM) and the “MIC Sau” value (S. aureus (Sau) [24]) was 2 µg/mL (≈ 1.29 µM). For the same molecule, the MBIC (Histophilus somnus (Hs) [25]) was <1 µg/mL, the MBIC (Streptococcus suis (Ss) [26]) was 4 µg/mL and the MBIC [27] was 2 µg/mL. It also gave an MBIC [28] of 2 µg/mL, an MBIC [29] of 2 µg/mL and an MBIC [30] of 2 µg/mL. The MBIC [31] was 4 µg/mL, the MBIC [32] was 2 µg/mL and the MBIC [33] was 2 µg/mL. For the same molecule, the MBIC [34] was <1 µg/mL, the MBIC [35] was 8 µg/mL and the “% Monocyte cytokine decrease in presence of LPS/ConA, IFNγ” value (LPS stimulated monocytes) was 31.6%. The “% Monocyte cytokine decrease in presence of LPS/ConA, IL-2” value (LPS stimulated monocytes) was 34.0%, the “% Monocyte cytokine decrease in presence of LPS/ConA, IL-4” value (LPS stimulated monocytes) was 3.9% and the “% Monocyte cytokine decrease in presence of LPS/ConA, IL-6” value (LPS stimulated monocytes) was 21.0%. For the same molecule, the “% Monocyte cytokine decrease in presence of LPS/ConA, IL-13” value (LPS stimulated monocytes) was 65.5% and the “% Monocyte cytokine decrease in presence of LPS/ConA, TNFα” value (LPS stimulated monocytes) was 68.1%.
